# Tests used:
# 4T1 cell tumor = test: In vivo tumor growth inhibition in 4T1 cell tumor-bearing mice; set-up: species or system BALB/c mice
# Experimental: To evaluate the in vivo antitumor efficacy of oral ATV-NEs, 1 × 10^6 4T1 cells dispersed in 100 μL of PBS (pH 7.4) were subcutaneously inoculated into the left flanks of BALB/c mice. […] To assess tumor growth suppression, the tumor size and body weight of the mice in all groups were measured every 3 days after treatment. The tumor volume in each mouse was calculated as (width)^2 × length × 0.52. After 21 days of treatment, mice were sacrificed and tumor masses were measured.
# 4T1 cells [1] = test: In vitro 4T1 cell invasion assay; format: cell-based, murine; settings: 100 µg/mL ATV, 24 h
# Experimental: (§1) The in vitro inhibition of 4T1 cell invasion and migration by ATV-NEs was assessed by Cultrex® 24-well basement membrane extract cell invasion assays (Trevigen, Inc., Gaithersburg, MD, USA). Briefly, the membrane insert in each well was uniformly coated with 100 µL of 0.5× basement membrane extract and incubated for 24 h at 37 °C. Separately, uncoated wells were used for cell migration assays. Next, each coated well was washed using 1× buffer. For invasion assays, the cells in Roswell Park Memorial Institute medium with 0.5% FBS were seeded into each apical chamber at a density of 1 × 10^6 cells/well. For cell migration assays, the same number of cells was seeded in the uncoated apical compartment. Subsequently, 500 µL of Roswell Park Memorial Institute medium containing 10% FBS were loaded into the basal compartment to serve as a chemoattractant; the cells were then cultured at 37 °C. After incubation for 24 h, both apical and basal compartments were washed with 1× buffer and the basal chamber was filled with 500 µL of cell dissociation solution (calcein-AM); the cells were incubated for 1 h at 37 °C. Finally, the dissolved calcein-AM concentration was measured with a fluorescence reader at an excitation wavelength of 485 nm and emission wavelength of 520 nm.
# [2] = tested on: 4T1 (murine stage IV breast cancer) cells; format: cell-based; settings: mouse, 24 h
# Experimental: (§2) After incubation for 1 h, the absorbance at 450 nm was measured and the percentage of viable cells was calculated by comparison with the absorbance of untreated cells (100% viability).
# [3] = tested on: MCF-7 (human breast adenocarcinoma) cells; format: cell-based; settings: 24 h
# Experimental: as §2
# 4T1 cells [4] = test: In vitro 4T1 cell adhesion to ECM components; format: cell-based, murine; settings: 100 µg/mL ATV, 1.5 h; fibronectin, collagen I, collagen IV, laminin I, fibrinogen
# Experimental: After incubation for 1.5 h at 37 °C, the cells were washed with PBS (pH 7.4) and stained by incubation for 10 min with the dye included in the kit. Then, each well was gently washed five times with 500 µL of sterilized water; 200 µL of extraction solution were added to each well, and the cells were incubated for 10 min in an orbital shaker. Finally, change in color was measured with a plate reader at 560 nm; inhibition of adhesion in the drug-treated cells was evaluated relative to inhibition in the untreated cells (control).
# 4T1 cells [5] = test: In vitro 4T1 cell migration assay; format: cell-based, murine; settings: Mus musculus, 4T1, 24 h; read-out: Inhibition of 4T1 cell migration compared with untreated controls
# Experimental: as §1
compound,measurement,setting,value
"CC(C)c1c(C(=O)Nc2ccccc2)c(-c2ccccc2)c(-c2ccc(F)cc2)n1CC[C@@H](O)C[C@@H](O)CC(=O)O [ATV in 10% DMF, Atorvastatin]",Tumor growth compared to untreated controls (in words),"4T1 cell tumor; daily oral, 40 mg/kg ATV in 10% DMF, 21 days",did not inhibit tumor growth
"CC(C)c1c(C(=O)Nc2ccccc2)c(-c2ccccc2)c(-c2ccc(F)cc2)n1CC[C@@H](O)C[C@@H](O)CC(=O)O [ATV in 0.5% DMSO, Atorvastatin]",Decrease in 4T1 cell invasion compared with untreated controls,4T1 cells [1],31.9%
same,Concentration at which cytotoxic effects were exhibited,[2],> 100 µg/mL ATV
same,Concentration at which cytotoxic effects were exhibited,[3],> 100 µg/mL ATV
same,4T1 cell adhesion to ECM components (in words),4T1 cells [4],significantly decreased adhesion
same,inhibition at 100 µg/mL,4T1 cells [5],20.3%
"CC(C)c1c(C(=O)Nc2ccccc2)c(-c2ccccc2)c(-c2ccc(F)cc2)n1CC[C@@H](O)C[C@@H](O)CC(=O)O [ATV-IP, Atorvastatin]",Tumor growth inhibition compared to controls,"4T1 cell tumor; once-daily IP, 5 mg/kg ATV in 10% DMF, 21 days",30.4%
same,Tumor growth inhibition compared to controls,"4T1 cell tumor; once-daily IP, 10 mg/kg ATV in 10% DMF, 21 days",52.5%
same,Isolated tumor mass reduction compared to controls,"4T1 cell tumor; once-daily IP, 10 mg/kg ATV in 10% DMF, day 21",73.8%
